Results on two molecules are retold here after article PMC5063977 (The Journal of Biological Chemistry, 2016).

Molecules are shown by their SMILES.

Common to all, as to format: cell-based
The target in assay [1] is T1, RAMP2-CLR (AM1 receptor) (Homo sapiens, UniProt O60895+Q16602).
T1 construct: FLAG; expressed in transfected cells; host or cells: HEK-293 or HEK-293S cells, transient transfection, 1:1 RAMP:CLR
The assay can be described thus: S. cerevisiae growth assay, GPA1/Gαq chimera, RAMP2 + CLR. Conditions: percentage of yeast strain MMY11 (lacking GPA1); 24-h; mean ± S.E., n = 6. Here is the method: (§1) FIGURE 7. […] Reporter gene activity was determined following 24-h stimulation. All data are expressed as percentage of the maximum response observed in yeast strain MMY11 and are means ± S.E. of n individual data sets. D, Bar chart showing the efficacy of each ligand for each RAMP-CLR combination at the Gαq chimera determined via application of the operational model of receptor agonism (Ref. [34] and Table 1). Data were determined as statistically different from the cognate ligand for each receptor (***, p < 0.001; ****, p < 0.0001) using one-way ANOVA with Bonferroni's post-test. E, signaling bias plots were calculated as ΔΔ(τ/Ka) values on a logarithmic scale for each ligand and for each chimera G protein for the three individual RAMP-CLR complexes.
(§2) General yeast procedures were performed as described previously ([22], [24]). […] Receptor signaling was measured using the yeast growth assay as described previously ([24]). […] A fluorescein signal was detected as an increase in fluorescence (excitation wavelength = 485 nm, emission wavelength = 535 nm) as a measure of growth. Different concentrations of ligand (0.01 nM–100 μM) were assayed using 96-well plates, and fluorescence was detected using a Tecan Infinite M200 microplate reader (Tecan Ultra Evolution, Reading, UK) or a Mithras LB 940 microplate reader (Berthold Technologies, Harpenden, UK) for 20 h. […]

For assay [2], the target named is T1, RAMP2-CLR (AM1 receptor). Description: S. cerevisiae growth assay, GPA1/Gαi chimera, RAMP2 + CLR. Particulars: percentage of yeast strain MMY11 (lacking GPA1); 20 h; mean ± S.E., n = 6. Here is the method: FIGURE 3. […] Reporter gene activity was determined following 20 h of stimulation.
General yeast procedures were performed as described previously ([22], [24]). The human CLR was introduced into yeast cells under the control of the PGK promoter using a plasmid containing ura3 (pDT-PGK). The three human RAMPs were introduced into yeast under the control of the GAPDH promoter using plasmids containing leu2 (p425-GPD) ([25]). S. cerevisiae dual reporter strains expressing chimeras of yeast GPA1(1–467) (GPA1/Gα) with the five C-terminal amino acids of […] human G proteins representing Gαs, Gα16, Gαq, Gαo, Gαi1/2, Gαi3, Gαz, Gα12, Gα13, and Gα14 (MMY84–MMY93) were used in this study ([52]). […] Receptor signaling was measured using the yeast growth assay as described previously ([24]). […] A fluorescein signal was detected as an increase in fluorescence (excitation wavelength = 485 nm, emission wavelength = 535 nm) as a measure of growth. Different concentrations of ligand (0.01 nM–100 μM) were assayed using 96-well plates, and fluorescence was detected using a Tecan Infinite M200 microplate reader (Tecan Ultra Evolution, Reading, UK) or a Mithras LB 940 microplate reader (Berthold Technologies, Harpenden, UK) for 20 h. […]

Assay [3] deals with T1, RAMP2-CLR (AM1 receptor). Description: S. cerevisiae growth assay, GPA1/Gαs chimera, RAMP2 + CLR. Conditions: percentage of yeast strain MMY11 (lacking GPA1); 20 h; mean ± S.E., n = 7. Here is the method:
(§3) FIGURE 1. […] Reporter gene activity was determined following 20 h of stimulation with each ligand. Data are expressed as a percentage of the maximum response observed in yeast strain MMY11 (lacking GPA1) and are means ± S.E. of n individual data sets. […] Data were determined as statistically different from the cognate ligand for each receptor (*, p < 0.05; **, p < 0.01; ***, p < 0.001) using a one-way ANOVA with Bonferroni's post-test.
(§4) General yeast procedures were performed as described previously ([22], [24]). The human CLR was introduced into yeast cells under the control of the PGK promoter using a plasmid containing ura3 (pDT-PGK). […] Receptor signaling was measured using the yeast growth assay as described previously ([24]). […] A fluorescein signal was detected as an increase in fluorescence (excitation wavelength = 485 nm, emission wavelength = 535 nm) as a measure of growth. Different concentrations of ligand (0.01 nM–100 μM) were assayed using 96-well plates, and fluorescence was detected using a Tecan Infinite M200 microplate reader (Tecan Ultra Evolution, Reading, UK) or a Mithras LB 940 microplate reader (Berthold Technologies, Harpenden, UK) for 20 h.
(§5) Data analysis for cAMP assays was performed in GraphPad Prism 6.0f (San Diego, CA). […] To quantitate the ligand-dependent response in the yeast system, a strain lacking GPA1 (MMY11), grown in rich medium, was used as a standard ([72]). […]

Assay [4] has as its target T2, RAMP1-CLR (CGRP receptor) (Homo sapiens, UniProt O60894+Q16602).
T2 construct: FLAG; expressed in transfected cells; host or cells: HEK-293 or HEK-293S cells, transient transfection, 1:1 RAMP:CLR
Description: S. cerevisiae growth assay, GPA1/Gαs chimera, RAMP1 + CLR. Particulars: percentage of yeast strain MMY11 (lacking GPA1); 20 h; mean ± S.E., n = 6. As to the method: as §3, §4, §5

Assay [5] deals with T2, RAMP1-CLR (CGRP receptor). The assay can be described thus: S. cerevisiae growth assay, GPA1/Gαq chimera, RAMP1 + CLR. Conditions: percentage of yeast strain MMY11 (lacking GPA1); 24-h; mean ± S.E., n = 7. As to the method:
as §1, §2

T1 sequence (Q16602 23-461): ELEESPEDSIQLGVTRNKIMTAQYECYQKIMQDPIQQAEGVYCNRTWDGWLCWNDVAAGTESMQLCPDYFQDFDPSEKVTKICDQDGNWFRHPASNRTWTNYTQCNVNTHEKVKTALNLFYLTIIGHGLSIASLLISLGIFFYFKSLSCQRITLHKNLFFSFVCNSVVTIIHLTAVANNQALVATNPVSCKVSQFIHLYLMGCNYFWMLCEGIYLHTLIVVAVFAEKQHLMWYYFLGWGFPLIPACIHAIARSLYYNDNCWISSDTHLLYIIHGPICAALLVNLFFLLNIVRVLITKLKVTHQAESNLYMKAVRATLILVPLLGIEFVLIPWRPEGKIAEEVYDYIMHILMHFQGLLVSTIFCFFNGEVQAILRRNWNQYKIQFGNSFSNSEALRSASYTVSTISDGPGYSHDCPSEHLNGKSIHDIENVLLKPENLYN
T1 sequence (O60895 43-175): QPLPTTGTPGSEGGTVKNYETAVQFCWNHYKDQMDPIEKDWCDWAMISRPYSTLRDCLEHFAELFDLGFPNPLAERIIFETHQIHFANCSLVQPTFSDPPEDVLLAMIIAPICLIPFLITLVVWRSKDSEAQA
T2 sequence (Q16602 23-461): as the sequence (Q16602 23-461) above
T2 sequence (O60894 27-148): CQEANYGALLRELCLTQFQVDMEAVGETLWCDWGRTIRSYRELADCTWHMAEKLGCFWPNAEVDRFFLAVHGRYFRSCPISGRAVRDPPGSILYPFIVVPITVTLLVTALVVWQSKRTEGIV

As to `CSCC[C@H](NC(=O)[C@H](CC(C)C)NC(=O)[C@H](CCC(N)=O)NC(=O)[C@H](Cc1c[nH]c2ccccc12)NC(=O)[C@H](CC(C)C)NC(=O)[C@H](CCCNC(=N)N)NC(=O)[C@H](Cc1c[nH]cn1)NC(=O)[C@H](CO)NC(=O)[C@H](CC(C)C)NC(=O)[C@H](CC(N)=O)NC(=O)[C@H](CCC(N)=O)NC(=O)[C@@H](NC(=O)[C@H](CCC(N)=O)NC(=O)[C@@H]1CSSC[C@H](NC(=O)CNC(=O)[C@@H](NC(=O)[C@H](CCCNC(=N)N)NC(=O)[C@H](CC(C)C)NC(=O)[C@H](CC(C)C)NC(=O)[C@H](CCC(N)=O)NC(=O)[C@H](C)NC(=O)[C@H](CCC(N)=O)NC(=O)[C@@H](N)[C@@H](C)O)C(C)C)C(=O)N[C@@H](C(C)C)C(=O)N[C@@H](CC(C)C)C(=O)NCC(=O)N[C@@H]([C@@H](C)O)C(=O)N1)C(C)C)C(=O)NCC(=O)N1CCC[C@H]1C(=O)N[C@@H](C)C(=O)NCC(=O)N[C@@H](CCCNC(=N)N)C(=O)N[C@@H](CCC(N)=O)C(=O)N[C@@H](CC(=O)O)C(=O)N[C@@H](CO)C(=O)N[C@@H](C)C(=O)N1CCC[C@H]1C(=O)N[C@H](C(=O)N[C@@H](CC(=O)O)C(=O)N1CCC[C@H]1C(=O)N[C@@H](CO)C(=O)N[C@@H](CO)C(=O)N1CCC[C@H]1C(=O)N[C@@H](Cc1c[nH]cn1)C(=O)N[C@@H](CO)C(=O)N[C@@H](Cc1ccc(O)cc1)C(N)=O)C(C)C` [AM2, adrenomedullin 2], the Emax turned out to be 11.3 ± 1.3% in assay [1], 15.7 ± 2.5% in assay [2] and 19.9 ± 2.5% in assay [3].
In the case of `CC[C@H](C)[C@H](NC(=O)[C@H](CCC(N)=O)NC(=O)[C@H](Cc1c[nH]cn1)NC(=O)[C@H](C)NC(=O)[C@H](CC(C)C)NC(=O)[C@H](CCCCN)NC(=O)[C@H](CCC(N)=O)NC(=O)[C@@H](NC(=O)[C@@H](NC(=O)[C@@H]1CSSC[C@H](NC(=O)CNC(=O)[C@H](Cc2ccccc2)NC(=O)[C@H](CO)NC(=O)[C@H](CCCNC(=N)N)NC(=O)[C@H](CC(C)C)NC(=O)CNC(=O)[C@H](CCC(N)=O)NC(=O)[C@H](Cc2ccccc2)NC(=O)[C@H](CC(N)=O)NC(=O)[C@H](CC(N)=O)NC(=O)[C@H](CCSC)NC(=O)[C@H](CO)NC(=O)[C@H](CCC(N)=O)NC(=O)[C@H](CCCNC(=N)N)NC(=O)[C@@H](N)Cc2ccc(O)cc2)C(=O)N[C@@H](CCCNC(=N)N)C(=O)N[C@@H](Cc2ccccc2)C(=O)NCC(=O)N[C@@H]([C@@H](C)O)C(=O)N1)[C@@H](C)O)C(C)C)C(=O)N[C@@H](Cc1ccc(O)cc1)C(=O)N[C@@H](CCC(N)=O)C(=O)N[C@@H](Cc1ccccc1)C(=O)N[C@H](C(=O)N[C@@H](CC(=O)O)C(=O)N[C@@H](CCCCN)C(=O)N[C@@H](CC(=O)O)C(=O)N[C@@H](CCCCN)C(=O)N[C@@H](CC(=O)O)C(=O)N[C@@H](CC(N)=O)C(=O)N[C@H](C(=O)N[C@@H](C)C(=O)N1CCC[C@H]1C(=O)N[C@@H](CCCNC(=N)N)C(=O)N[C@@H](CO)C(=O)N[C@@H](CCCCN)C(=O)N[C@H](C(=O)N[C@@H](CO)C(=O)N1CCC[C@H]1C(=O)N[C@@H](CCC(N)=O)C(=O)NCC(=O)N[C@@H](Cc1ccc(O)cc1)C(N)=O)[C@@H](C)CC)C(C)C)[C@@H](C)O` [AM, adrenomedullin], the Emax in assay [4] worked out at 20.4 ± 2.8%; in assay [5] it was 14.1 ± 1.2%.
